This passage reports observations results from patent US20220401331A1, “PERSONAL CLEANSING COMPOSITIONS, METHODS AND USES” (The Procter & Gamble Company, priority 2021, published 2022).

A short description of the series: Observations of appearance, structure and phase separation (Centrifuge Test, standing). Particulars: gel structure, phase separation. In kind it is physicochemical.

As to “non-ethoxylated sodium tridecyl sulfate [ST0S]”, the observations result is on record as “did not form lamellar phase”.
